Test results as given in PubChem BioAssay (NCI).
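Each compound was tested at five concentrations against cells in 96-well plates for 48 hours. GI50 = concentration required for 50% inhibition of growth. TGI is the concentration that stops growth completely.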

What was measured:
Experiment in all cases: NCI anticancer screen, dose series, 48 h
SK-MEL-2 melanoma = tested on: SK-MEL-2 melanoma
MDA-MB-231 breast = tested on: MDA-MB-231 breast
LOX IMVI melanoma = tested on: LOX IMVI melanoma
HCT-116 colon = tested on: HCT-116 colon
RPMI-8226 leukemia = tested on: RPMI-8226 leukemia
NCI/ADR-RES ovarian = tested on: NCI/ADR-RES ovarian
SF-295 CNS = tested on: SF-295 CNS
NCI-H522 lung = tested on: NCI-H522 lung
UO-31 renal = tested on: UO-31 renal
HCT-15 colon = tested on: HCT-15 colon
SF-539 CNS = tested on: SF-539 CNS
MALME-3M melanoma = tested on: MALME-3M melanoma
OVCAR-4 ovarian = tested on: OVCAR-4 ovarian
M14 melanoma = tested on: M14 melanoma
OVCAR-5 ovarian = tested on: OVCAR-5 ovarian
SK-MEL-5 melanoma = tested on: SK-MEL-5 melanoma
786-0 renal = tested on: 786-0 renal
DU-145 prostate = tested on: DU-145 prostate
A549 NSCLC = tested on: A549 NSCLC
EKVX NSCLC = tested on: EKVX NSCLC
SK-MEL-28 melanoma = tested on: SK-MEL-28 melanoma
SW-620 colon = tested on: SW-620 colon
OVCAR-8 ovarian = tested on: OVCAR-8 ovarian
RXF 393 renal = tested on: RXF 393 renal
NCI-H226 lung = tested on: NCI-H226 lung
K-562 leukemia = tested on: K-562 leukemia
HCC-2998 colon = tested on: HCC-2998 colon
NCI-H460 lung = tested on: NCI-H460 lung
COLO 205 colon = tested on: COLO 205 colon
T-47D breast = tested on: T-47D breast
SNB-75 CNS = tested on: SNB-75 CNS
SN12C renal = tested on: SN12C renal
UACC-62 melanoma = tested on: UACC-62 melanoma
A498 renal = tested on: A498 renal
SF-268 CNS = tested on: SF-268 CNS
TK-10 renal = tested on: TK-10 renal
OVCAR-3 ovarian = tested on: OVCAR-3 ovarian
HOP-62 NSCLC = tested on: HOP-62 NSCLC
CAKI-1 renal = tested on: CAKI-1 renal
PC-3 prostate = tested on: PC-3 prostate
HT29 colon = tested on: HT29 colon
SK-OV-3 ovarian = tested on: SK-OV-3 ovarian
SNB-19 CNS = tested on: SNB-19 CNS
ACHN renal = tested on: ACHN renal
BT-549 breast = tested on: BT-549 breast
HOP-92 NSCLC = tested on: HOP-92 NSCLC
MCF7 breast = tested on: MCF7 breast
UACC-257 melanoma = tested on: UACC-257 melanoma
HS 578T breast = tested on: HS 578T breast
NCI-H23 lung = tested on: NCI-H23 lung
MDA-MB-435 = tested on: MDA-MB-435
U251 CNS = tested on: U251 CNS
IGROV1 ovarian = tested on: IGROV1 ovarian
HL-60(TB) leukemia = tested on: HL-60(TB) leukemia
MOLT-4 leukemia = tested on: MOLT-4 leukemia

C1=CN2C[n+]3cccc(OCc4ccccc4)c3N=C2C(OCc2ccccc2)=C1
TGI (SK-MEL-2 melanoma): 33.3 µM
TGI (MDA-MB-231 breast): 56.1 µM
TGI (LOX IMVI melanoma): 86 µM
TGI (HCT-116 colon): > 100 µM
TGI (RPMI-8226 leukemia): 9.26 µM
TGI (NCI/ADR-RES ovarian): > 100 µM
TGI (SF-295 CNS): 50 µM
TGI (NCI-H522 lung): 15.8 µM
TGI (UO-31 renal): > 100 µM
TGI (HCT-15 colon): > 100 µM
TGI (SF-539 CNS): 26.7 µM
TGI (MALME-3M melanoma): 30.6 µM
TGI (OVCAR-4 ovarian): 82.9 µM
TGI (M14 melanoma): 56.4 µM
TGI (OVCAR-5 ovarian): > 100 µM
TGI (SK-MEL-5 melanoma): 21.2 µM
TGI (786-0 renal): > 100 µM
TGI (DU-145 prostate): > 100 µM
TGI (A549 NSCLC): > 100 µM
TGI (EKVX NSCLC): > 100 µM
TGI (SK-MEL-28 melanoma): 36 µM
TGI (SW-620 colon): > 100 µM
TGI (OVCAR-8 ovarian): > 100 µM
TGI (RXF 393 renal): > 100 µM
TGI (NCI-H226 lung): > 100 µM
TGI (K-562 leukemia): 42.4 µM
TGI (HCC-2998 colon): 23.2 µM
TGI (NCI-H460 lung): > 100 µM
TGI (COLO 205 colon): 18 µM
TGI (T-47D breast): > 100 µM
TGI (SNB-75 CNS): > 100 µM
TGI (SN12C renal): 25.3 µM
TGI (UACC-62 melanoma): 26.6 µM
TGI (A498 renal): > 100 µM
TGI (SF-268 CNS): > 100 µM
TGI (TK-10 renal): > 100 µM
TGI (OVCAR-3 ovarian): 25 µM
TGI (HOP-62 NSCLC): > 100 µM
TGI (CAKI-1 renal): 73.1 µM
TGI (PC-3 prostate): > 100 µM
TGI (HT29 colon): 47.1 µM
TGI (SK-OV-3 ovarian): > 100 µM
TGI (SNB-19 CNS): 27.2 µM
TGI (ACHN renal): > 100 µM
TGI (BT-549 breast): 3.25 µM
TGI (HOP-92 NSCLC): 81.4 µM
TGI (MCF7 breast): > 100 µM
TGI (UACC-257 melanoma): 27.5 µM
TGI (HS 578T breast): 21.5 µM
TGI (NCI-H23 lung): 39.9 µM
TGI (MDA-MB-435): 33.2 µM
TGI (U251 CNS): > 100 µM
TGI (IGROV1 ovarian): 27.7 µM
TGI (HL-60(TB) leukemia): 0.849 µM

CC(=O)c1ccc(Nc2cc(-n3ccnc3)nc3ccccc23)cc1
GI50 (SK-MEL-2 melanoma): > 100 µM
TGI (SK-MEL-2 melanoma): > 100 µM
GI50 (MOLT-4 leukemia): 10.7 µM
TGI (MOLT-4 leukemia): 58.1 µM
GI50 (MDA-MB-231 breast): 3.64 µM
TGI (MDA-MB-231 breast): 18.1 µM
GI50 (HCT-116 colon): 30.5 µM
TGI (HCT-116 colon): > 100 µM
GI50 (RPMI-8226 leukemia): 3.24 µM
TGI (RPMI-8226 leukemia): 9.84 µM
GI50 (NCI/ADR-RES ovarian): > 100 µM
TGI (NCI/ADR-RES ovarian): > 100 µM
GI50 (SF-295 CNS): 2.8 µM
TGI (SF-295 CNS): 9.53 µM
GI50 (NCI-H522 lung): 87.9 µM
TGI (NCI-H522 lung): > 100 µM
GI50 (UO-31 renal): 66.7 µM
TGI (UO-31 renal): > 100 µM
GI50 (HCT-15 colon): 34.2 µM
TGI (HCT-15 colon): > 100 µM
GI50 (SF-539 CNS): 40.6 µM
TGI (SF-539 CNS): 88.7 µM
GI50 (MALME-3M melanoma): 15.4 µM
TGI (MALME-3M melanoma): 56.5 µM
GI50 (OVCAR-4 ovarian): > 100 µM
TGI (OVCAR-4 ovarian): > 100 µM
GI50 (M14 melanoma): 8.15 µM
TGI (M14 melanoma): 52 µM
GI50 (OVCAR-5 ovarian): > 100 µM
TGI (OVCAR-5 ovarian): > 100 µM
GI50 (SK-MEL-5 melanoma): 15.6 µM
TGI (SK-MEL-5 melanoma): 53 µM
GI50 (786-0 renal): 7.86 µM
TGI (786-0 renal): 41.3 µM
GI50 (DU-145 prostate): > 100 µM
TGI (DU-145 prostate): > 100 µM
GI50 (A549 NSCLC): 35.3 µM
TGI (A549 NSCLC): > 100 µM
GI50 (EKVX NSCLC): > 100 µM
TGI (EKVX NSCLC): > 100 µM
GI50 (SK-MEL-28 melanoma): 29.8 µM
TGI (SK-MEL-28 melanoma): > 100 µM
GI50 (SW-620 colon): 49.1 µM
TGI (SW-620 colon): > 100 µM
GI50 (OVCAR-8 ovarian): 50.5 µM
TGI (OVCAR-8 ovarian): > 100 µM
GI50 (RXF 393 renal): 26 µM
TGI (RXF 393 renal): 76.8 µM
GI50 (NCI-H226 lung): 24.4 µM
TGI (NCI-H226 lung): 92.1 µM
GI50 (K-562 leukemia): 11.4 µM
TGI (K-562 leukemia): 81.5 µM
GI50 (HCC-2998 colon): > 100 µM
TGI (HCC-2998 colon): > 100 µM
GI50 (NCI-H460 lung): 34.2 µM
TGI (NCI-H460 lung): > 100 µM
GI50 (COLO 205 colon): > 100 µM
TGI (COLO 205 colon): > 100 µM
GI50 (T-47D breast): > 100 µM
TGI (T-47D breast): > 100 µM
GI50 (SNB-75 CNS): 38.2 µM
TGI (SNB-75 CNS): > 100 µM
GI50 (SN12C renal): 45.8 µM
TGI (SN12C renal): > 100 µM
GI50 (UACC-62 melanoma): 19.2 µM
TGI (UACC-62 melanoma): 92.8 µM
GI50 (SF-268 CNS): 14.8 µM
TGI (SF-268 CNS): 67.7 µM
GI50 (TK-10 renal): 15.6 µM
TGI (TK-10 renal): 63 µM
GI50 (HOP-62 NSCLC): 4.26 µM
TGI (HOP-62 NSCLC): 29.4 µM
GI50 (CAKI-1 renal): 1.71 µM
TGI (CAKI-1 renal): 7.57 µM
GI50 (PC-3 prostate): 20.5 µM
TGI (PC-3 prostate): > 100 µM
GI50 (HT29 colon): 60.7 µM
TGI (HT29 colon): > 100 µM
GI50 (SK-OV-3 ovarian): > 100 µM
TGI (SK-OV-3 ovarian): > 100 µM
GI50 (SNB-19 CNS): > 100 µM
TGI (SNB-19 CNS): > 100 µM
GI50 (ACHN renal): 48.4 µM
TGI (ACHN renal): > 100 µM
GI50 (BT-549 breast): > 100 µM
TGI (BT-549 breast): > 100 µM
GI50 (HOP-92 NSCLC): 4.15 µM
TGI (HOP-92 NSCLC): 29.4 µM
GI50 (MCF7 breast): 36 µM
TGI (MCF7 breast): > 100 µM
GI50 (UACC-257 melanoma): 33.4 µM
TGI (UACC-257 melanoma): > 100 µM
GI50 (HS 578T breast): 33.4 µM
TGI (HS 578T breast): > 100 µM
GI50 (NCI-H23 lung): 49.6 µM
TGI (NCI-H23 lung): > 100 µM
GI50 (MDA-MB-435): 13.5 µM
TGI (MDA-MB-435): 60.1 µM
GI50 (U251 CNS): 32.6 µM
TGI (U251 CNS): > 100 µM
GI50 (IGROV1 ovarian): > 100 µM
TGI (IGROV1 ovarian): > 100 µM
